Data taken from ChEMBL document CHEMBL1201862, “PubChem BioAssay data set” (2004).
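1) Cells in 96-well plates. 2) Compound, 48 h, 5 concentrations. 3) Linear interpolation between surrounding doses. 4) Unreached endpoint = highest concentration. At the GI50, growth is halved.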 Active and inactive are the calls of the source. Rule as the data show it: active = GI50 up to about 1.1 µM and inactive = higher.

Columns and labels:
Assay in all cases: NCI tumour cell line growth inhibition, 48 h
[1] = test system: 786-0
[2] = test system: A498
[3] = test system: ACHN
[4] = test system: COLO 205
[5] = test system: EKVX
[6] = test system: HCC 2998
[7] = test system: HOP-62
[8] = test system: IGROV-1
[9] = test system: M14
[10] = test system: MDA-MB-435
[11] = test system: NCI/ADR-RES
[12] = test system: OVCAR-4
[13] = test system: RXF 393
[14] = test system: SK-MEL-28
[15] = test system: TK-10
[16] = test system: U-251
[17] = test system: UACC-62
[18] = test system: UO-31
[19] = test system: CAKI-1

Measured: GI50

O=C(Cc1ccccc1)NN1C(=O)/C(=C\c2ccccc2)S/C1=N\c1ccccc1
inactive: [1] > 100 µM | [2] > 100 µM | [3] > 100 µM | [4] > 100 µM | [5] > 100 µM | [6] > 100 µM | [7] > 100 µM | [8] > 100 µM | [9] > 100 µM | [10] > 100 µM | [11] > 100 µM | [12] > 100 µM | [13] > 100 µM | [14] > 100 µM | [15] > 100 µM | [16] > 100 µM | [17] > 100 µM | [18] > 100 µM

CC1C2CCC3C(O)C2(CC(O)C2(O)C1CC(O)C2(C)C)CC3(C)O (stereo not drawn)
inactive: [1] > 100 µM | [2] > 100 µM | [3] > 100 µM | [19] > 100 µM | [4] > 100 µM | [5] > 100 µM | [6] > 100 µM | [8] > 100 µM | [9] > 100 µM | [10] > 100 µM | [11] > 100 µM | [12] > 100 µM | [14] > 100 µM | [15] > 100 µM | [16] > 100 µM | [17] > 100 µM | [18] > 100 µM

O=C(Cn1c2c(c3ccccc31)CCCC2)NC1CCCCC1
inactive: [1] 69.8 µM | [2] > 100 µM | [3] > 100 µM | [19] > 100 µM | [4] > 100 µM | [5] > 100 µM | [6] > 100 µM | [7] 81.8 µM | [8] 22.5 µM | [9] > 100 µM | [10] > 100 µM | [11] > 100 µM | [12] 94.2 µM | [14] 63 µM | [15] > 100 µM | [17] 56.4 µM | [18] > 100 µM

COC(=O)c1ccc(NCC2=CC(=O)C=CC2=O)cc1
inactive: [1] 2.46 µM | [2] 14.5 µM | [3] 14 µM | [19] 2.4 µM | [4] 2.69 µM | [5] 10.6 µM | [6] 21.6 µM | [8] 16.7 µM | [9] 4.06 µM | [10] 11.3 µM | [11] 4.38 µM | [12] 12.4 µM | [14] 15.1 µM | [15] 10.8 µM | [16] 13.6 µM | [17] 14.6 µM | [18] 7.08 µM

CC1=C(O)C(O)=C(C2=C(O)C(O)=C(C)C(=O)C2=O)C(=O)C1=O
inactive: [1] 41.7 µM | [2] 31 µM | [3] 28.1 µM | [19] 40.7 µM | [4] 40.7 µM | [5] > 100 µM | [6] 39.1 µM | [7] 44 µM | [8] 43.4 µM | [9] 38.5 µM | [10] 37.8 µM | [11] 36 µM | [12] 24.6 µM | [13] 26.7 µM | [14] 29.2 µM | [16] 40.9 µM | [17] 18.6 µM | [18] 39.1 µM

N=C1C(O)C2(I)c3ccccc3N3C(=N)C(O)C4c5ccccc5N1C4C32 (stereo not drawn)
inactive: [1] 30.8 µM | [2] > 100 µM | [3] 39.4 µM | [19] 93.5 µM | [4] 26.2 µM | [5] > 100 µM | [7] 38.3 µM | [8] 19.9 µM | [9] 59 µM | [10] 20.4 µM | [11] 61.2 µM | [12] 16 µM | [13] > 100 µM | [14] 90.6 µM | [15] > 100 µM | [16] 22.1 µM | [17] > 100 µM | [18] > 100 µM

Cc1ccc(C(=O)OC(C)C)cc1/N=N/N(C)C
inactive: [1] > 100 µM | [3] > 88.5 µM | [19] 83 µM | [4] > 100 µM | [5] > 100 µM | [6] > 100 µM | [7] 97.5 µM | [8] > 100 µM | [9] > 100 µM | [10] > 100 µM | [11] 98.4 µM | [12] > 75.2 µM | [14] > 100 µM | [15] > 100 µM | [16] > 71.4 µM | [17] > 96.2 µM | [18] 70 µM

Cc1sc2nc3n(c(=O)c2c1C)N=C(c1ccc([N+](=O)[O-])cc1)CS3
inactive: [1] > 100 µM | [2] > 100 µM | [3] > 100 µM | [19] > 100 µM | [4] > 100 µM | [5] > 100 µM | [6] > 100 µM | [7] 61.9 µM | [10] > 100 µM | [11] > 100 µM | [12] > 10 µM | [13] > 100 µM | [14] > 100 µM | [16] > 100 µM | [17] > 100 µM | [18] > 100 µM

COc1ccccc1NS(=O)(=O)c1ccc2ncn(NS(=O)(=O)c3ccc(Cl)cc3)c(=O)c2c1
inactive: [1] > 100 µM | [3] > 100 µM | [19] > 100 µM | [4] > 100 µM | [5] > 100 µM | [6] > 100 µM | [7] > 100 µM | [8] > 100 µM | [9] 5.86 µM | [10] > 100 µM | [11] > 100 µM | [12] > 100 µM | [14] > 100 µM | [15] > 100 µM | [16] > 100 µM | [17] 39.1 µM | [18] 35.2 µM

Cc1ccc(/N=N/c2c(C)c(C#N)c(=S)n(C3OC(CO)C(O)C(O)C3O)c2C)cc1 (stereo not drawn)
inactive: [1] 28.4 µM | [3] 34 µM | [19] 37.2 µM | [4] 38.7 µM | [6] 21.7 µM | [7] 34.3 µM | [8] 38.9 µM | [9] 20.4 µM | [10] 24.6 µM | [11] 30.5 µM | [12] 34.4 µM | [13] 26.1 µM | [14] 22.1 µM | [15] 63.1 µM | [16] 21.2 µM | [17] 13.5 µM | [18] 37.5 µM

NC1=CN2c3ccccc3N(CC(=O)N3CCOCC3)C2C=C1 (stereo not drawn)
inactive: [1] > 100 µM | [2] 52.1 µM | [3] > 100 µM | [19] > 100 µM | [4] > 100 µM | [5] > 100 µM | [7] > 100 µM | [8] > 100 µM | [9] > 100 µM | [10] > 100 µM | [11] > 100 µM | [12] > 100 µM | [13] > 100 µM | [14] > 100 µM | [15] > 100 µM | [16] > 100 µM | [17] > 100 µM | [18] > 100 µM

COCOc1cc(OC)ccc1C=O
inactive: [1] 36.6 µM | [3] 95.7 µM | [19] 86.9 µM | [4] 24.9 µM | [5] 52.1 µM | [6] 24.2 µM | [7] 72.3 µM | [8] 33.1 µM | [9] 35.2 µM | [10] 8.39 µM | [11] 17.3 µM | [12] 78 µM | [13] 14.7 µM | [14] > 100 µM | [15] 31.6 µM | [16] 30 µM | [17] 54.2 µM | [18] 64 µM

CSc1c(C(=O)Nc2ccc(C)cc2)c(N)n(N)c(=O)c1C#N
inactive: [1] > 100 µM | [2] > 100 µM | [19] > 100 µM | [4] > 100 µM | [5] > 100 µM | [6] > 100 µM | [8] > 100 µM | [9] > 100 µM | [10] > 100 µM | [11] > 100 µM | [12] > 100 µM | [13] > 100 µM | [14] > 100 µM | [15] > 100 µM | [16] > 100 µM | [17] > 100 µM | [18] 60.1 µM

N#C[C@H](c1nc2ccccc2[nH]1)c1nc2ccccc2nc1Cl
inactive: [1] 7.62 µM | [2] 26.2 µM | [3] > 23.1 µM | [19] 4.68 µM | [4] 12.8 µM | [5] 9.68 µM | [6] > 40.6 µM | [8] 11.2 µM | [9] > 23.4 µM | [10] 14.3 µM | [11] 29.8 µM | [12] > 35.2 µM | [13] > 100 µM | [14] 20.2 µM | [15] 14 µM | [16] 15.8 µM | [18] > 47 µM

COc1ccc2c(c1OC)CN1CCc3cc4c(cc3C1C2)OCO4 (stereo not drawn) [TETRAHYDROBERBERINE]
inactive: [1] > 100 µM | [2] > 100 µM | [3] > 100 µM | [19] > 100 µM | [4] > 100 µM | [5] > 100 µM | [6] > 100 µM | [7] > 100 µM | [8] > 100 µM | [9] > 100 µM | [10] > 100 µM | [11] > 100 µM | [12] > 100 µM | [14] > 100 µM | [15] > 100 µM | [16] > 100 µM | [17] > 100 µM | [18] > 100 µM

Cc1cc(C)c(/N=N/c2c(O)c(S(=O)(=O)O)cc3cc(S(=O)(=O)O)ccc23)cc1C
inactive: [1] 48.9 µM | [2] > 100 µM | [3] > 100 µM | [19] > 100 µM | [4] > 100 µM | [5] > 100 µM | [7] > 100 µM | [8] > 100 µM | [9] > 100 µM | [10] > 100 µM | [11] > 100 µM | [12] > 100 µM | [13] > 100 µM | [14] > 100 µM | [15] > 100 µM | [16] > 100 µM | [17] > 100 µM | [18] > 100 µM
